From patent US4277479A, “Tetrazolylalkoxycarbostyril derivatives and pharmaceutical compositions containing them” (Otsuka Pharmaceutical Co., Ltd., priority 1978, dated 1981)

Tests used:
[1] = test system: cerebral blood flow, bastard dog; assay: Increasing effect of cerebral blood flow in anesthetized dog; type: in vivo; conditions: Canis lupus familiaris, iv; for change in vivo at 0.3 mg/kg: dosage 300 μg/kg
Procedure: (Test of increasing effect of cerebral blood flow)
Thus, a bastard dog (male, 12-20 kg of body weight) was fixed in a prone (position) and was anesthetized with […] of pentobarbital sodium and forced to breathe at a frequency of respiration of 20 times/minute. Then, the skull was bared and the surface bone was removed to expose the venous sinus by using a grinder and the venous blood was taken out from the venas which was cannulizated. The amount of venous blood flow was measured by using an electromagnetic blood flow meter and next measured by using drop-counter to measure the number of drops of blood per 10 seconds.
The increasing effect of cerebral blood flow was calculated by comparing the number of blood drops in 30 seconds at the peak of increasement shown before and after the administration of compound to be tested. Each of the compounds to be tested was dissolved in dimethylformamide and diluted with physiological saline solution and administered through a cannule being inserted into the profunda femoris vein.

[2] = test system: rabbit platelet (collagen-induced aggregation); assay: Platelet aggregation inhibitory effect, collagen-induced aggregation in rabbit platelet; type: cell-based; conditions: Oryctolagus cuniculus, read-out: Inhibition effect on collagen-induced aggregation in rabbit platelet; for inhibition at 100 µM: concentration of the test compound solution 10^-4 mole; for inhibition at 10 µM: concentration of the test compound solution 10^-5 mole; for inhibition at 1 µM: concentration of the test compound solution 10^-6 mole
Excerpt: (§1) The blood sample used for the test is a 1/9 (by volume) mixture of sodium citrate and whole blood collected from rabbit. Said sample is subjected to 10-minute centrifugal separation at 1,000 r.p.m. to obtain a platelet rich plasma (PRP). The thus obtained PRP is separated, and the remaining blood sample is further subjected to 15-minute centrifugal separation at 3,000 r.p.m. to obtain a platelet poor plasma (PPP).
(§2) The number of platelets in the PRP is counted by the Brecher-Clonkite Method, and the PRP is diluted with the PPP to prepare a PRP sample with platelet concentration of 300,000/mm^3 for the adenosine diphosphate (ADP)-induced aggregation test. There is also prepared a PRP sample with platelet concentration of 450,000/mm^3 for the collagen-induced aggregation test.
(§3) 0.6 Ml of said PRP sample is added into 0.01 ml of a solution of a test compound of a predetermined concentration and the mixture is placed in a 37° C. thermostat for one minute. Then 0.07 ml of an ADP or collagen solution is added to the mixture. Transmittance of this mixture is determined and the change of transmittance is recorded by using the aggregometer at stirrer speed of 1,100 r.p.m. […] ADP is adjusted to a concentration of 7.5×10^-5 M, and the collagen solution is prepared by triturating 100 mg of collagen with 5 ml of said buffer and the supernatant is used as collagen inducer. Adenosine and acetylsalicylic acid are used as controls for the ADP-induced aggregation test and the collagen-induced aggregation test, respectively. The platelet aggregation inhibitory effect is measured in terms of percent inhibition with respect to the aggregation rate of the controls. The aggregation rate is calculated from the following formula: [formula] wherein a: transmittance of PRP
(§4) b: transmittance of PRP containing a test compound and an aggregation inducer
(§5) The compounds tested are as follows.

[3] = test system: rabbit platelet (ADP-induced aggregation); assay: Platelet aggregation inhibitory effect, ADP-induced aggregation in rabbit platelet; type: cell-based; conditions: Oryctolagus cuniculus; for inhibition at 100 µM: concentration of the test compound solution 10^-4 mole; for inhibition at 100 µM / inhibition at 10 µM: read-out: Inhibition effect on ADP-induced aggregation in rabbit platelet; for inhibition at 10 µM: concentration of the test compound solution 10^-5 mole; for inhibition at 1 µM: concentration of the test compound solution 10^-6 mole
Excerpt: as §1, §2, §3, §4, §5

Acute toxicity test = conditions: mouse, in vivo; male mice, oral administration
Procedure: The test compounds were administered orally to the mice and LD50 (mg/kg) of the compounds was determined.

blood platelets = conditions: at low concentration; Japanese Patent Kokai No. 125,930/73; cited from earlier work
thrombosis = conditions: administered orally or intravenously to mammals including humans; Japanese Patent Kokai No. 125,930/73; cited from earlier work
[4] = through profunda femoris vein, dog

| Structure (SMILES) | change in vivo at 1 mg/kg ([1]; read-out: Increasing effect of cerebral blood flow) | inhibition at 100 µM [2] | inhibition at 10 µM [2] | inhibition at 1 µM [2] | inhibition at 100 µM [3] | inhibition at 10 µM [3] | inhibition at 1 µM [3] | change in vivo at 0.3 mg/kg [1, 4] | LD50 (Acute toxicity test) | inhibition of the aggregation of blood platelets (blood platelets) | effectiveness for preventing and treating thrombosis (thrombosis) | change in vivo at 0.03 mg/kg ([1]; dosage 30 μg/kg, through profunda femoris vein, dog) |
| --- | --- | --- | --- | --- | --- | --- | --- | --- | --- | --- | --- | --- |
| COc1ccc(Cc2nccc3cc(OC)c(OC)cc23)cc1OC [Papaverine, papaverine, reference compound] | 78.9% |  |  |  |  |  |  |  |  |  |  |  |
| O=c1ccc2cc(OCCCc3nnnn3Cc3ccccc3)ccc2[nH]1 [Compound 4, 6-[3-(1-Benzyltetrazol-5-yl)propoxy]carbostyril] |  | 100% | 72.5% | 10.8% | 100% | 45.5% | 3.7% | 65.8% | > 1000 mg/kg |  |  |  |
| CC(C)(C)NCC(O)COc1cccc2c1CCC(=O)N2 (stereo not shown) [5-(2'-hydroxy-3-tert-butylamino)-propoxy-3,4-dihydrocarbostyril] |  |  |  |  |  |  |  |  |  | could specifically inhibit the aggregation of blood platelets | very effective for preventing and treating thrombosis |  |
| CC(C)n1nnnc1CCCOc1ccc2[nH]c(=O)ccc2c1 [Compound 2, 6-[3-(1-Isopropyltetrazol-5-yl)propoxy]carbostyril] |  | 100% | 58.1% | 11.8% | 74.7% | 36.8% | 11.9% |  | > 1000 mg/kg |  |  |  |
| CC(=O)N1C(=O)CCc2cc(OCCCc3nnnn3C3CCCCC3)ccc21 [Compound 14, 1-Acetyl-6-[3-(1-cyclohexyltetrazol-5-yl)propoxy]-3,4-dihydrocarbostyril] |  | 86.8% | 47.3% |  | 79.4% | 43.2% |  |  | > 1000 mg/kg |  |  |  |
| O=C1CCc2cc(OCCCc3nnnn3C3CCCCC3)ccc2N1 [Compound 3, 6-[3-(1-Cyclohexyltetrazol-5-yl)propoxy]-3,4-dihydrocarbostyril] |  | 100% | 53.5% | 10.3% | 76.7% | 59.6% | 9.6% |  | > 1000 mg/kg |  |  | 69% |
| O=C1CCc2c(cccc2OCCCc2nnnn2C2CCCCC2)N1 [Compound 11, 5-[3-(1-Cyclohexyltetrazol-5-yl)propoxy]-3,4-dihydrocarbostyril] |  | 98.4% | 42.4% |  | 90.4% | 30.2% |  |  | > 1000 mg/kg |  |  |  |
| O=c1ccc2cc(OCCCc3nnnn3-c3ccccc3)ccc2[nH]1 [Compound 9, 6-[3-(1-Phenyltetrazol-5-yl)propoxy]carbostyril] |  | 100% | 100% | 32.8% | 100% | 45.1% | 26.8% | 69.9% | > 1000 mg/kg |  |  |  |
| Cc1cc(=O)[nH]c2ccc(OCCCc3nnnn3C3CCCCC3)cc12 [Compound 10, 4-Methyl-6-[3-(1-cyclohexyltetrazol-5-yl)propoxy]carbostyril] |  | 100% | 100% | 18.2% | 100% | 61.7% | 28.1% |  | > 1000 mg/kg |  |  |  |
| Cn1c(=O)ccc2cc(OCCCc3nnnn3C3CCCCC3)ccc21 [Compound 8, 1-Methyl-6-[3-(1-cyclohexyltetrazol-5-yl)propoxy]carbostyril] |  | 91.5% | 43.4% | 18.6% | 87.8% | 42.4% | 21.3% |  | > 1000 mg/kg |  |  |  |
